Measurements taken from patent US8426446B2, “Acrylamide derivative and use thereof in manufacture of medicament” (Beijing Shiqiao Biopharm Co. Ltd., priority 2009, dated 2013).

System: Human Leukemia Cell K562
Assay: Inhibitory effects on Human Leukemia Cell K562 (MTT)
Format: cell-based
Details: K562 cells, 72 h~120 h
Description: K562 cells were seeded in RPMI1640 cell culture solution containing 10% of fetal calf serum (supplemented with 100 ku/L of penicillin and streptomycin each). Culture dish was placed in the cell incubator under 5% of CO2 at 37° C. The culture solution was centrifuged and replaced every 2-3 days to passage and collect cells.
Cells in logarithmic growth phase were formulated into the cell suspensions at the required concentration with RPMI1640 culture solution containing 10% fetal calf serum. The resulting mixture was added to 96-wells cell culture plate at 3,000 cells per well (100 μl); after 12 hours of culture, to each well was added different amount of stock solution. The final concentrations of the samples are 100 μg/ml, 10 μg/ml, 1 μg/ml, […], and 0.01 μg/ml respectively in triplicate. After 72 h˜120 h, supernatant was discarded. To each well was added […] fresh serum-free culture solution containing 5 mg/ml blue tetrazolium (MTT). After culturing for 4 hours at 37° C., the mixture was centrifuged at 3000 rpm/min and the supernatant was discarded. Formazan was dissolved with 200 μl DMSO. After vortex oscillation for 1 min, absorbance value (OD-value) was measured on microplate reader at the wavelength of 570/450 nm. Inhibition ratio=(control group OD-value−drug group OD-value)/control group OD-value×100%.

| Structure (SMILES) | IC50 (Homo sapiens) [nM] | IC50 [nM] |
| --- | --- | --- |
| Cc1ccc(C(=O)Nc2ccc(C)c(NC(=O)/C=C/c3cccnc3)c2)cc1 [compound 1, N-(4-methyl-3-(3-(pyridin-3-yl)acrylamido)phenyl)-4-methylbenzamide] | < 2.7 | – |
| Cc1ccc(NC(=O)c2ccc(F)cc2)cc1NC(=O)/C=C/c1cccnc1 [compound 2, N-(4-methyl-3-(3-(pyridin-3-yl)acrylamido)phenyl)-4-fluoro benzamide] | < 2.7 | – |
| Cc1ccc(NC(=O)c2ccc(F)cc2F)cc1NC(=O)/C=C/c1cccnc1 [compound 3, N-(4-methyl-3-(3-(pyridin-3-yl)acrylamido)phenyl)-2,4-difluoro benzamide] | < 2.5 | – |
| Cc1ccc(NC(=O)c2ccc(Cl)cc2Cl)cc1NC(=O)/C=C/c1cccnc1 [compound 4, N-(4-methyl-3-(3-(pyridin-3-yl)acrylamido)phenyl)-2,4-dichloro benzamide] | 2 to 20 | – |
| Cc1ccc(NC(=O)c2cc(C(F)(F)F)cc(C(F)(F)F)c2)cc1NC(=O)/C=C/c1cccnc1 [compound 5, N-(4-methyl-3-(3-(pyridin-3-yl)acrylamido)phenyl)-3,5-bis-(trifluoromethyl)benzamide] | 1 to 20 | – |
| Cc1ccc(NC(=O)c2ccc(CN3CCN(C)CC3)cc2)cc1NC(=O)/C=C/c1cccnc1 [compound 11, N-(4-methyl-3-(3-(pyridin-3-yl)acrylamido)phenyl)-4-((4-methylpiperazin-1-yl)methyl)benzamide] | < 2 | – |
| Cc1ccc(NC(=O)c2ccc(CN3C[C@@H](C)N[C@@H](C)C3)cc2)cc1NC(=O)/C=C/c1cccnc1 [compound 12] | < 5 | – |
| CCN1CCN(Cc2ccc(C(=O)Nc3ccc(C)c(NC(=O)/C=C/c4cccnc4)c3)cc2)CC1 [compound 13, N-(4-methyl-3-(3-(pyridin-3-yl)acrylamido)phenyl)-4-((4-ethylpiperazin-1-yl)methyl)benzamide] | 2 | – |
| Cc1ccc(NC(=O)c2ccc(CN3CCOCC3)c(C(F)(F)F)c2)cc1NC(=O)/C=C/c1cccnc1 [compound 21, N-(4-methyl-3-(3-(pyridin-3-yl)acrylamido)phenyl)-4-(morpholin-4-ylmethyl)-3-(trifluoromethyl)benzamide] | 2 | – |
| Cc1ccc(NC(=O)c2ccc(CN3CCC(N(C)C)C3)c(C(F)(F)F)c2)cc1NC(=O)/C=C/c1cccnc1 (stereo not shown) [compound 24, N-(4-methyl-3-(3-(pyridin-3-yl)acrylamido)phenyl)-4-((3-(dimethylamino)pyrrolidin-1-yl)methyl)-3-(trifluoromethyl)benzamide] | – | < 1 |
| Cc1ccc(NC(=O)c2ccc(CN3CCCN(C)CC3)c(C(F)(F)F)c2)cc1NC(=O)/C=C/c1cccnc1 [compound 25, N-(4-methyl-3-(3-(pyridin-3-yl)acrylamido)phenyl)-4-((4-methyl-1,4-homopiperazin-1-yl)methyl)-3-(trifluoromethyl)benzamide] | 2 to 20 | – |
| Cc1ccc(NC(=O)c2ccc(CN3CCN(C)CC3)c(Br)c2)cc1NC(=O)/C=C/c1cccnc1 [compound 26, N-(4-methyl-3-(3-(pyridin-3-yl)acrylamido)phenyl)-4-((4-dimethylpiperazin-1-yl)methyl)-3-bromobenzamide] | 2 to 20 | – |
| Cc1ccc(NC(=O)c2cc(F)cc(C(F)(F)F)c2)cc1NC(=O)/C=C/c1cncnc1 [compound 33, N-(4-methyl-3-(3-(pyrimidin-5-yl)acrylamido)phenyl)-5-fluoro-3-(trifluoromethyl)benzamide] | < 1 | – |
| Cc1ccc(NC(=O)c2ccc(CN3CCN(C)CC3)c(C(F)(F)F)c2)cc1NC(=O)/C=C/c1cncnc1 [compound 39, N-(4-methyl-3-(3-(pyrimidin-5-yl)acrylamido)phenyl)-4-((4-methylpiperazin-1-yl)methyl)-3-(trifluoromethyl)benzamide] | < 1 | – |
| Cc1ccc(NC(=O)c2ccc(CN3CC[C@@H](N(C)C)C3)c(C(F)(F)F)c2)cc1NC(=O)/C=C/c1cncnc1 [compound 42, N-(4-methyl-3-(3-(pyrimidin-5-yl)acrylamido)phenyl)-4-(((R)-3-(dimethylamino)pyrrolidin-1-yl)methyl)-3-(trifluoromethyl)benzamide] | < 1 | – |
| Cc1ccc(NC(=O)c2ccc(CN3CCC(N(C)C)C3)c(C(F)(F)F)c2)cc1NC(=O)/C=C/c1cncnc1 [compound 43, N-(4-methyl-3-(3-(pyrimidin-5-yl)acrylamido)phenyl)-4-(((S)-3-(dimethylamino)pyrrolidin-1-yl)methyl)-3-(trifluoromethyl)benzamide] | < 1 | – |
| Cc1ccc(NC(=O)c2ccc(CN3CCC(N(C)C)C3)c(C(F)(F)F)c2)cc1NC(=O)/C=C/c1cncnc1 (stereo not shown) [compound 44, N-(4-methyl-3-(3-(pyrimidin-5-yl)acrylamido)phenyl)-4-((3-(dimethylamino)pyrrolidin-1-yl)methyl)-3-(trifluoromethyl)benzamide] | – | < 1 |

Continued, values first:

| IC50 (Homo sapiens) [nM] | IC50 [nM] | Structure (SMILES) |
| --- | --- | --- |
| < 1 | – | Cc1ccc(NC(=O)c2ccc(C)c(C(F)(F)F)c2)cc1NC(=O)/C=C/c1cccnc1 [compound 7, N-(4-methyl-3-(3-(pyridin-3-yl)acrylamido)phenyl)-3-(rifluoromethyl)-4-methyl benzamide] |
| < 1 | – | Cc1ccc(NC(=O)c2cc(F)cc(C(F)(F)F)c2)cc1NC(=O)/C=C/c1cccnc1 [compound 10, N-(4-methyl-3-(3-(pyridin-3-yl)acrylamido)phenyl)-3-fluoro-5-(trifluoromethyl)benzamide] |
| < 1 | – | Cc1ccc(NC(=O)c2ccc(CN3CCN(C)CC3)c(C(F)(F)F)c2)cc1NC(=O)/C=C/c1cccnc1 [compound 19, N-(4-methyl-3-(3-(pyridin-3-yl)acrylamido)phenyl)-4-((4-methylpiperazin-1-yl)methyl)-3-(trifluoromethyl)benzamide] |
| < 1 | – | CCN1CCN(Cc2ccc(C(=O)Nc3ccc(C)c(NC(=O)/C=C/c4cccnc4)c3)cc2C(F)(F)F)CC1 [compound 20, N-(4-methyl-3-(3-(pyridin-3-yl)acrylamido)phenyl)-4-((4-ethylpiperazin-1-yl)methyl)-3-(trifluoromethyl)benzamide] |
| < 1 | – | Cc1ccc(NC(=O)c2ccc(CN3CC[C@@H](N(C)C)C3)c(C(F)(F)F)c2)cc1NC(=O)/C=C/c1cccnc1 [compound 22, N-(4-methyl-3-(3-(pyridin-3-yl)acrylamido)phenyl)-4-(((R)-3-(dimethylamino)pyrrolidin-1-yl)methyl)-3-(trifluoromethyl)benzamide] |
| < 1 | – | Cc1ccc(NC(=O)c2ccc(CN3CCC(N(C)C)C3)c(C(F)(F)F)c2)cc1NC(=O)/C=C/c1cccnc1 [compound 23, N-(4-methyl-3-(3-(pyridin-3-yl)acrylamido)phenyl)-4-(((S)-3-(dimethylamino)pyrrolidin-1-yl)methyl)-3-(trifluoromethyl)benzamide] |
| < 1 | – | Cc1ccc(NC(=O)c2cc(C(F)(F)F)cc(C(F)(F)F)c2)cc1NC(=O)/C=C/c1cncnc1 [compound 31, N-(4-methyl-3-(3-(pyrimidin-5-yl)acrylamido)phenyl)-3,5-bis-(trifluoromethyl)benzamide] |
| < 1 | – | Cc1ccc(NC(=O)c2ccc(C)c(C(F)(F)F)c2)cc1NC(=O)/C=C/c1cncnc1 [compound 32, N-(4-methyl-3-(3-(pyrimidin-5-yl)acrylamido)phenyl)-4-methyl-3-(trifluoromethyl)benzamide] |
